Test system: NHBE cells
Experiment: Biolog metabolic array: substrate use by NHBE cells with or without CA09 infection
Format: cell-based, human
Conditions: for Substrate use, 590 nm absorbance normalized to zero hour, 0 hr: Biolog PMM2, 0 hr; for Substrate use, 590 nm absorbance normalized to zero hour, 1 hr: Biolog PMM2, 1 hr; for Substrate use, 590 nm absorbance normalized to zero hour, 5 hr: Biolog PMM2, 5 hr; for Substrate use, 590 nm absorbance normalized to zero hour, 7 hr: Biolog PMM2, 7 hr
[1] = Control (uninfected) NHBE cells
[2] = Virus (CA09-infected NHBE cells, MOI 1)
[3] = Virus: CA09-infected NHBE cells, MOI 1, Biolog PMM2
[4] = Virus (CA09-infected, MOI 1) NHBE cells

Row | SMILES | 590 nm absorbance normalized to zero hour (substrate use), 0 hr [1] | 590 nm absorbance normalized to zero hour (substrate use), 1 hr [1] | 590 nm absorbance normalized to zero hour (substrate use), 3 hr [1] | 590 nm absorbance normalized to zero hour (substrate use), 4 hr [1] | 590 nm absorbance normalized to zero hour (substrate use), 6 hr [1] | 590 nm absorbance normalized to zero hour (substrate use), 8 hr [1] | 590 nm absorbance normalized to zero hour (substrate use), 9 hr [1] | 590 nm absorbance normalized to zero hour (substrate use), 10 hr [1] | 590 nm absorbance normalized to zero hour (substrate use), 11 hr [1] | Substrate use, 590 nm absorbance normalized to zero hour, 0 hr [1] | Substrate use, 590 nm absorbance normalized to zero hour, 1 hr [1] | Substrate use, 590 nm absorbance normalized to zero hour, 5 hr [1] | Substrate use, 590 nm absorbance normalized to zero hour, 7 hr [1] | 590 nm absorbance normalized to zero hour (substrate use), 0 hr [3] | 590 nm absorbance normalized to zero hour (substrate use), 1 hr [3] | 590 nm absorbance normalized to zero hour (substrate use), 2 hr [3] | 590 nm absorbance normalized to zero hour (substrate use), 3 hr [3] | 590 nm absorbance normalized to zero hour (substrate use), 4 hr [3] | 590 nm absorbance normalized to zero hour (substrate use), 5 hr [3] | 590 nm absorbance normalized to zero hour (substrate use), 6 hr [3] | also measured
1 | OC[C@@H](O)[C@@H](O)CO [i-Erythritol] | 1.00 | 1.76 | 2.67 | 2.83 | 5.19 | 3.84 | 4.30 | 4.08 | 4.22 | 1.00 | 1.76 | 3.31 | 3.78 | 1.00 | 0.23 | 0.29 | 0.32 | 0.34 | 0.39 | 0.41 | 590 nm absorbance normalized to zero hour (substrate use), 2 hr [1]: 2.33; 590 nm absorbance normalized to zero hour (substrate use), 0 hr [2]: 1.00; 590 nm absorbance normalized to zero hour (substrate use), 1 hr [2]: 0.23; 590 nm absorbance normalized to zero hour (substrate use), 2 hr [2]: 0.29; 590 nm absorbance normalized to zero hour (substrate use), 3 hr [2]: 0.32; 590 nm absorbance normalized to zero hour (substrate use), 4 hr [2]: 0.34; 590 nm absorbance normalized to zero hour (substrate use), 5 hr [2]: 0.39; 590 nm absorbance normalized to zero hour (substrate use), 6 hr [2]: 0.41; 590 nm absorbance normalized to zero hour (substrate use), 7 hr [2]: 0.43; 590 nm absorbance normalized to zero hour (substrate use), 8 hr [2]: 0.45; 590 nm absorbance normalized to zero hour (substrate use), 9 hr [2]: 0.49; 590 nm absorbance normalized to zero hour (substrate use), 10 hr [2]: 0.50; 590 nm absorbance normalized to zero hour (substrate use), 11 hr [2]: 0.53; 590 nm absorbance normalized to zero hour (substrate use), 7 hr [3]: 0.43; 590 nm absorbance normalized to zero hour (substrate use), 8 hr [3]: 0.45; 590 nm absorbance normalized to zero hour (substrate use), 9 hr [3]: 0.49; 590 nm absorbance normalized to zero hour (substrate use), 10 hr [3]: 0.50; 590 nm absorbance normalized to zero hour (substrate use), 11 hr [3]: 0.53
2 | NCCO [2-Aminoethanol] | 1.00 | 1.30 | 1.12 | 1.15 | 0.46 | 1.06 | 1.03 | 1.05 | 1.07 | 1.00 | 1.30 | 1.24 | 1.07 | 1.00 | 1.65 | 2.01 | 2.38 | 2.50 | 2.74 | 2.88 | 590 nm absorbance normalized to zero hour (substrate use), 0 hr [4]: 1.00; 590 nm absorbance normalized to zero hour (substrate use), 1 hr [4]: 1.65; 590 nm absorbance normalized to zero hour (substrate use), 2 hr [4]: 2.01; 590 nm absorbance normalized to zero hour (substrate use), 3 hr [4]: 2.38; 590 nm absorbance normalized to zero hour (substrate use), 4 hr [4]: 2.50; 590 nm absorbance normalized to zero hour (substrate use), 5 hr [4]: 2.74; 590 nm absorbance normalized to zero hour (substrate use), 6 hr [4]: 2.88; 590 nm absorbance normalized to zero hour (substrate use), 7 hr [4]: 3.01; 590 nm absorbance normalized to zero hour (substrate use), 8 hr [4]: 3.12; 590 nm absorbance normalized to zero hour (substrate use), 9 hr [4]: 3.41; 590 nm absorbance normalized to zero hour (substrate use), 10 hr [4]: 3.22; 590 nm absorbance normalized to zero hour (substrate use), 11 hr [4]: 3.78; 590 nm absorbance normalized to zero hour (substrate use), 7 hr [3]: 3.01; 590 nm absorbance normalized to zero hour (substrate use), 8 hr [3]: 3.12; 590 nm absorbance normalized to zero hour (substrate use), 9 hr [3]: 3.41; 590 nm absorbance normalized to zero hour (substrate use), 10 hr [3]: 3.22; 590 nm absorbance normalized to zero hour (substrate use), 11 hr [3]: 3.78
3 | OC[C@H]1O[C@@H]2O[C@H]3[C@H](O)[C@@H](O)[C@@H](O[C@H]4[C@H](O)[C@@H](O)[C@@H](O[C@H]5[C@H](O)[C@@H](O)[C@@H](O[C@H]6[C@H](O)[C@@H](O)[C@@H](O[C@H]7[C@H](O)[C@@H](O)[C@@H](O[C@H]1[C@H](O)[C@H]2O)O[C@@H]7CO)O[C@@H]6CO)O[C@@H]5CO)O[C@@H]4CO)O[C@@H]3CO [a-Cyclo-dextrin] | 1.00 | 1.89 | 3.24 | 3.50 | 4.31 | 5.25 | 5.99 | 6.37 | 5.86 | 1.00 | 1.89 | 4.31 | 4.96 | 1.00 | 1.86 | 2.62 | 2.99 | 3.18 | 3.75 | 4.06 | 590 nm absorbance normalized to zero hour (substrate use), 2 hr [1]: 2.66; 590 nm absorbance normalized to zero hour (substrate use), 0 hr [4]: 1.00; 590 nm absorbance normalized to zero hour (substrate use), 1 hr [4]: 1.86; 590 nm absorbance normalized to zero hour (substrate use), 2 hr [4]: 2.62; 590 nm absorbance normalized to zero hour (substrate use), 3 hr [4]: 2.99; 590 nm absorbance normalized to zero hour (substrate use), 4 hr [4]: 3.18; 590 nm absorbance normalized to zero hour (substrate use), 5 hr [4]: 3.75; 590 nm absorbance normalized to zero hour (substrate use), 6 hr [4]: 4.06; 590 nm absorbance normalized to zero hour (substrate use), 7 hr [4]: 4.29; 590 nm absorbance normalized to zero hour (substrate use), 8 hr [4]: 4.56; 590 nm absorbance normalized to zero hour (substrate use), 9 hr [4]: 4.96; 590 nm absorbance normalized to zero hour (substrate use), 10 hr [4]: 5.19; 590 nm absorbance normalized to zero hour (substrate use), 11 hr [4]: 4.09; 590 nm absorbance normalized to zero hour (substrate use), 7 hr [3]: 4.29; 590 nm absorbance normalized to zero hour (substrate use), 8 hr [3]: 4.56; 590 nm absorbance normalized to zero hour (substrate use), 9 hr [3]: 4.96; 590 nm absorbance normalized to zero hour (substrate use), 10 hr [3]: 5.19; 590 nm absorbance normalized to zero hour (substrate use), 11 hr [3]: 4.09

Reference: patent US11083725B2 (priority 2014, dated 2021)
